Assay [1] addresses T1, TTK (Homo sapiens, UniProt P33981).
T1 sequence (P33981 1-857): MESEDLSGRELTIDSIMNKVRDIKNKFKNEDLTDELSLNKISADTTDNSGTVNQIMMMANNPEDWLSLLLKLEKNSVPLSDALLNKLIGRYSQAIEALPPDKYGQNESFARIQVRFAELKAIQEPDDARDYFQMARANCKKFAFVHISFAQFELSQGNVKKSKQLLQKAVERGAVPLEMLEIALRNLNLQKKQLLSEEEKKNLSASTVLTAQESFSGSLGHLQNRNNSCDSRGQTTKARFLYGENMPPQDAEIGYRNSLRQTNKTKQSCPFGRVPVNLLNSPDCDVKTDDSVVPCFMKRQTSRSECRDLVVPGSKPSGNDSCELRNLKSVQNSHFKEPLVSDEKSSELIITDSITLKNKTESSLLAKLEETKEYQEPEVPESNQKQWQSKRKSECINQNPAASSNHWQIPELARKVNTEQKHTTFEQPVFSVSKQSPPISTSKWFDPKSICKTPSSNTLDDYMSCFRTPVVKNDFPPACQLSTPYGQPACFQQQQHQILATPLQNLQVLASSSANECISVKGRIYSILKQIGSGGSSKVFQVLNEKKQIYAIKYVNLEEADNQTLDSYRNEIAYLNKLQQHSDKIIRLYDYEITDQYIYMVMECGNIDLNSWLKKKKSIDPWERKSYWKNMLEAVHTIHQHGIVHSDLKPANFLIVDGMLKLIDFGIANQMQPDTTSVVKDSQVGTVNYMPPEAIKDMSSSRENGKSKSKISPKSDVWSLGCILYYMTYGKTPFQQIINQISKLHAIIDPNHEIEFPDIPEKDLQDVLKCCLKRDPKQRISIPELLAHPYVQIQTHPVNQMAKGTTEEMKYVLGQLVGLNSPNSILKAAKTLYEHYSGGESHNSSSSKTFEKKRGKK
As to the kind of experiment: TTK assay: screening of TTK kinase activity suppressing action using p38 MAPK peptide. The following applies: p38 MAPK peptide substrate; read-out: TTK IC50. Type of assay: biochemical. The method, boiled down:
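TTK (4 μg/ml in enzyme solution) mixed with p38 MAPK peptide and ATP (each 60 μM in substrate solution) in Tris-HCl pH 7.5 with MgCl2, DTT, Na3VO4, β-glycerophosphate, BSA. Reaction aliquot captured on NeutrAvidin plate, detected with Eu-labelled anti-mouse IgG by time-resolved fluorescence; inhibition relative to no-compound signal.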

Assay [2] concerns A549. The assay can be described thus: A549 assay: screening of cancer cell growth inhibiting compound. Type of assay: cell-based. The settings on record: Homo sapiens, 72 h; A549 cells, three days, WST-8; read-out: A549 IC50. The method, boiled down:
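A549 cells (1×10^4/ml) in D-MEM with 10% FBS were pre-incubated one day at 37 °C, then exposed to compound dilutions for three further days. Viable cell number read by WST-8 (1–4 hours), absorbance 450 nm (reference 620 nm); inhibition calculated relative to untreated wells.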
(In general: Formazan colour is commonly taken as a measure of viable cells.)

This passage reports IC50 results from patent US20120059162A1, “FUSED IMIDAZOLE DERIVATIVE HAVING TTK INHIBITORY ACTION” (Oncotherapy Science, Inc., priority 2009, published 2012).

With `O=C(NC1CC1)c1ccc(-c2cnc3c(NCC4CCOCC4)cc(NC4CCCC(F)(F)C4)nn23)cc1` (stereo not drawn) [Example 2-80], the half-inhibitory concentration (IC50) (usually the concentration that gives 50% inhibition) in assay [1] was 0.004 µM; in assay [2] it was no more than 0.05 µM.

As for `CN(c1cc(NCC2CCOCC2)c2ncc(-c3ccc(C(=O)NC4CC4)cc3)n2n1)C1CCCCC1` [Example 2-17], the figures for the IC50 in assay [1] and in assay [2] were 0.0031 µM and no more than 0.05 µM, respectively.

Turning to `O=C(NC1CC1)c1ccc(-c2cnc3c(NCC4CCOCC4)cc(NCC(F)(F)F)nn23)cc1` [Example 2-30], the values for the IC50 in assay [1] and in assay [2] were 0.0119 µM and 0.05 to 0.5 µM, respectively.
